# “And” between values parts separate entries of the source, which are not always exact repeats. Equal entries are not always repeated. Structures can show the parent of a compound that is named as a salt. Where two headings read alike, the source gives them in different places.
# What was measured:
# [1] = test system: Salmonella typhimurium TA 100; assay: Back mutation test, TA100; format: cell-based
# Description: (§1) A test was carried out in accordance with the “Standard of Mutagenicity Tests Using Microorganisms” (Ministry of Labor Notification No. 77, 1988) (partial revision by Ministry of Labor Notification No. 67, 1997) and “Regarding the Tests Concerning Novel Chemical Substances and the like” (dated Nov. 21, 2003: Yaku-Shoku-Hatsu No. 1121002, 2003.11.13 Sei-Kyoku, No. 2, Kan-Ho-Ki-Hatsu No. 031121002). To 0.1 ml of a solution prepared by dissolving 5% (w/v) of 5-aminolevulinic acid phosphate in distilled water (Wako Pure Chemical Industries), 0.5 ml of 0.1 M sodium-phosphate buffer (pH 7.4) (0.5 ml S9 mix in the case of metabolism activation test) was added, and 0.1 ml of each test strain suspension (5 strains of histidine-less Salmonella typhimurium TA 100, TA 98, TA 1535 and TA 1537 and tryptophan-less Escherichia coli WP2 uvrA were used (Japan Bioassay Research Center)) was further added thereto, followed by pre-incubation at 37° C. for 20 minutes while shaking. After completion of the culturing, 2.0 ml of top agar kept at 45° C. in advance was added thereto and layered on a minimum glucose agar plate medium. In this case, 2 plates were arranged for each dosage. However, 3 plates were arranged for a solvent control (negative control). […] In the measurement, an inner area of about 80 mm in diameter of a plate of 86 mm in diameter (84 mm in inner diameter) was measured using an automatic colony analyzer (CA-11: manufactured by System Science), and calculated by carrying out area correction and counting loss correction using a personal computer. However, since reliability of the automatic colony analyzer is reduced when the number of colonies is 1,500 or more, 5 points in the plate were manually measured under the stereoscopic microscope to carry out area correction of the average value. A dosage setting test was carried out on 7 dosages diluted at a common ratio of 4, using a dosage of 5,000 μg/plate as the maximum which is the maximum dosage defined by the guideline. […] Growth inhibition of the strains by this substance to be tested was not found. […] Thus, this test was carried out by setting 5 dosages diluted at a common ratio of 2, using a dosage of 5,000 μg/plate as the maximum which is the maximum dosage defined by the guideline.
# [2] = test system: Escherichia coli WP2 uvrA; assay: Back mutation test, WP2uvrA; format: cell-based
# Description: as §1
# [3] = test system: Salmonella typhimurium TA 98; assay: Back mutation test, TA98; format: cell-based
# Description: as §1
# [4] = test system: Salmonella typhimurium TA 1537; conditions: TA1537; for Positive control, number of back mutation, single plates: dihydrochloride
# Description: (§2) A test was carried out in accordance with the “Standard of Mutagenicity Tests Using Microorganisms” (Ministry of Labor Notification No. 77, 1988) (partial revision by Ministry of Labor Notification No. 67, 1997) and “Regarding the Tests Concerning Novel Chemical Substances and the like” (dated Nov. 21, 2003: Yaku-Shoku-Hatsu No. 1121002, 2003.11.13 Sei-Kyoku, No. 2, Kan-Ho-Ki-Hatsu No. 031121002). To 0.1 ml of a solution prepared by dissolving 5% (w/v) of 5-aminolevulinic acid phosphate in distilled water (Wako Pure Chemical Industries), 0.5 ml of 0.1 M sodium-phosphate buffer (pH 7.4) (0.5 ml S9 mix in the case of metabolism activation test) was added, and 0.1 ml of each test strain suspension (5 strains of histidine-less Salmonella typhimurium TA 100, TA 98, TA 1535 and TA 1537 and tryptophan-less Escherichia coli WP2 uvrA were used (Japan Bioassay Research Center)) was further added thereto, followed by pre-incubation at 37° C. for 20 minutes while shaking. After completion of the culturing, 2.0 ml of top agar kept at 45° C. in advance was added thereto and layered on a minimum glucose agar plate medium. In this case, 2 plates were arranged for each dosage. However, 3 plates were arranged for a solvent control (negative control). […] In the measurement, an inner area of about 80 mm in diameter of a plate of 86 mm in diameter (84 mm in inner diameter) was measured using an automatic colony analyzer (CA-11: manufactured by System Science), and calculated by carrying out area correction and counting loss correction using a personal computer. However, since reliability of the automatic colony analyzer is reduced when the number of colonies is 1,500 or more, 5 points in the plate were manually measured under the stereoscopic microscope to carry out area correction of the average value. A dosage setting test was carried out on 7 dosages diluted at a common ratio of 4, using a dosage of 5,000 μg/plate as the maximum which is the maximum dosage defined by the guideline.
# [5] = test system: Salmonella typhimurium TA 1535; conditions: TA1535
# Description: as §2
# radish = assay: Plant activating effect, foliar application, radish; format: in vivo; conditions: 21 days, 12 seeds
# Description: After 600 g of upland soil was packed in a porcelain pot of 12 cm in inner diameter, 12 grains of radish seeds were sowed therein, covered with 5 mm in depth of the soil and allowed to grow in a green house. Foliar application treatment was carried out once a day using the following application liquids. Conditions of the leaves 21 days thereafter were observed.
# [6] = test system: spiderwort Commelina communis; assay: Plant activating effect, foliar application, spiderwort; format: in vivo; conditions: 21 days, 12 plants
# Description: A total of 12 pots, in which 600 g of volcanic ash soil was packed in a porcelain pot of 12 cm in inner diameter, and 1 plant of a spiderwort Commelina communis grown to a height of 15 cm was planted in 1 pot, were prepared and placed under a constant temperature environment of 20° C., and foliar application treatment was carried out once a day using the following application liquids. Conditions of the leaves 21 days thereafter were observed.
# [7] = S9 Mix not required, 0.01 μg/plate
# [8] = S9 Mix not required, 0.1 μg/plate
# [9] = S9 Mix not required, 1.0 μg/plate
# [10] = S9 Mix not required, 0.5 μg/plate
compound,measurement,setting,value
"NC(=O)C(=Cc1ccc([N+](=O)[O-])o1)c1ccco1 [AF-2, 2-(2-furyl)-3-(5-nitro-2-furyl)acrylamide, reference compound]","Positive control, number of back mutation, mean (in parentheses)",[1]; [7],(572) Colonies/plate
same,"Positive control, number of back mutation, single plates",[1]; [7],564 Colonies/plate and 580 Colonies/plate
same,"Positive control, number of back mutation, mean (in parentheses)","[1]; S9 Mix required, 1.0 μg/plate",(1230) Colonies/plate
same,"Positive control, number of back mutation, single plates","[1]; S9 Mix required, 1.0 μg/plate",1275 Colonies/plate and 1184 Colonies/plate
same,"Positive control, number of back mutation, mean (in parentheses)",[2]; [7],(152) Colonies/plate
same,"Positive control, number of back mutation, single plates",[2]; [7],155 Colonies/plate and 149 Colonies/plate
same,"Positive control, number of back mutation, mean (in parentheses)","[2]; S9 Mix required, 10.0 μg/plate",(1267) Colonies/plate
same,"Positive control, number of back mutation, single plates","[2]; S9 Mix required, 10.0 μg/plate",1230 Colonies/plate and 1304 Colonies/plate
same,"Positive control, number of back mutation, mean (in parentheses)",[3]; [8],(568) Colonies/plate
same,"Positive control, number of back mutation, single plates",[3]; [8],575 Colonies/plate and 560 Colonies/plate
same,"Positive control, number of back mutation, mean (in parentheses)","[3]; S9 Mix required, 0.5 μg/plate",(665) Colonies/plate
same,"Positive control, number of back mutation, single plates","[3]; S9 Mix required, 0.5 μg/plate",661 Colonies/plate and 668 Colonies/plate
"COc1ccc2nc3cc(Cl)ccc3c(NCCCNCCCl)c2c1 [ICR-191, 6-chloro-9-[3-(2-chloroethylamine)-propylamino]-2-methoxyacridine dihydrochloride, reference compound]","Positive control, number of back mutation, mean (in parentheses)",[4]; [9],(4001) Colonies/plate
same,"Positive control, number of back mutation, single plates",[4]; [9],4068 Colonies/plate and 3934 Colonies/plate
same,"Positive control, number of back mutation, mean (in parentheses)","[4]; S9 Mix required, 2.0 μg/plate",(262) Colonies/plate
same,"Positive control, number of back mutation, single plates","[4]; S9 Mix required, 2.0 μg/plate",257 Colonies/plate and 267 Colonies/plate
"[N-]=[N+]=[N-] [NaN3, sodium azide, reference compound]","Positive control, number of back mutation, mean (in parentheses)",[5]; [10],(210) Colonies/plate
same,"Positive control, number of back mutation, single plates",[5]; [10],203 Colonies/plate and 216 Colonies/plate
same,"Positive control, number of back mutation, mean (in parentheses)","[5]; S9 Mix required, 2.0 μg/plate",(138) Colonies/plate
same,"Positive control, number of back mutation, single plates","[5]; S9 Mix required, 2.0 μg/plate",137 Colonies/plate and 138 Colonies/plate
Cc1ccc(S(=O)(=O)O)cc1 [p-toluenesulfonic acid],plants judged 0: Abnormality was not found on the leaf surface,radish; 1 ppm in tap water,1 plant^ plants
same,plants judged 1: A region discolored to yellow was found on the leaf surface,radish; 1 ppm in tap water,2 plants
same,plants judged 2: A necrotic region was found on the leaf surface,radish; 1 ppm in tap water,9 plants
same,plants judged 0: Abnormality was not found on the leaf surface,radish; 10 ppm in tap water,1 plant^ plants
same,plants judged 1: A region discolored to yellow was found on the leaf surface,radish; 10 ppm in tap water,2 plants
same,plants judged 2: A necrotic region was found on the leaf surface,radish; 10 ppm in tap water,9 plants
same,plants judged 0: Abnormality was not found on the leaf surface,radish; 100 ppm in tap water,0 plant^ plants
same,plants judged 1: A region discolored to yellow was found on the leaf surface,radish; 100 ppm in tap water,3 plants
same,plants judged 2: A necrotic region was found on the leaf surface,radish; 100 ppm in tap water,9 plants
O=[N+]([O-])[O-].[Na+] [sodium nitrate],plants judged 0: Abnormality was not found on the leaf surface,radish; 1 ppm in tap water,2 plants
same,plants judged 1: A region discolored to yellow was found on the leaf surface,radish; 1 ppm in tap water,6 plants
same,plants judged 2: A necrotic region was found on the leaf surface,radish; 1 ppm in tap water,4 plants
same,plants judged 0: Abnormality was not found on the leaf surface,radish; 10 ppm in tap water,2 plants
same,plants judged 1: A region discolored to yellow was found on the leaf surface,radish; 10 ppm in tap water,4 plants
same,plants judged 2: A necrotic region was found on the leaf surface,radish; 10 ppm in tap water,6 plants
same,plants judged 0: Abnormality was not found on the leaf surface,radish; 100 ppm in tap water,2 plants
same,plants judged 1: A region discolored to yellow was found on the leaf surface,radish; 100 ppm in tap water,5 plants
same,plants judged 2: A necrotic region was found on the leaf surface,radish; 100 ppm in tap water,5 plants
O=P(O)(O)O [sodium phosphate],plants judged 0: Abnormality was not found on the leaf surface,[6]; 1 ppm in tap water,4 plants
same,plants judged 1: A region discolored to yellow was found on the leaf surface,[6]; 1 ppm in tap water,3 plants
same,plants judged 2: A necrotic region was found on the leaf surface,[6]; 1 ppm in tap water,5 plants
same,plants judged 0: Abnormality was not found on the leaf surface,[6]; 10 ppm in tap water,2 plants
same,plants judged 1: A region discolored to yellow was found on the leaf surface,[6]; 10 ppm in tap water,4 plants
same,plants judged 2: A necrotic region was found on the leaf surface,[6]; 10 ppm in tap water,6 plants
same,plants judged 0: Abnormality was not found on the leaf surface,[6]; 100 ppm in tap water,3 plants
same,plants judged 1: A region discolored to yellow was found on the leaf surface,[6]; 100 ppm in tap water,2 plants
same,plants judged 2: A necrotic region was found on the leaf surface,[6]; 100 ppm in tap water,7 plants
